This assay has as its target T1, GLUT1 (Homo sapiens, UniProt P11166).
T1 sequence (P11166 1-492): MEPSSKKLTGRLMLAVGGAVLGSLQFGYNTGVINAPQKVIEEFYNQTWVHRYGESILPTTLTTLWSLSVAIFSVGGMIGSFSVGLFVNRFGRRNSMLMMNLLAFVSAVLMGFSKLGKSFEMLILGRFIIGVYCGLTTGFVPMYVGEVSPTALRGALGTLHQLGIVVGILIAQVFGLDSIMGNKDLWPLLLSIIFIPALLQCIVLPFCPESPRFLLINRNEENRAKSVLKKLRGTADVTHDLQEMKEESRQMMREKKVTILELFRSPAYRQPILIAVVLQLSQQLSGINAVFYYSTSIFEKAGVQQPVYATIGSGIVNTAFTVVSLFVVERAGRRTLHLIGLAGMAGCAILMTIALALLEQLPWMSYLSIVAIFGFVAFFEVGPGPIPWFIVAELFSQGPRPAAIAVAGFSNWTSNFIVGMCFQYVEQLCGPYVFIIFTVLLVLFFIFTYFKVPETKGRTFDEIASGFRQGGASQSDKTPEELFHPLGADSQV
Kind of assay: Indirect measurement of GLUT1 activity by quantification of intracellular ATP levels (glucose induced ATP increase). Format: cell-based. Details: endogenous in cells; host or cells: DLD1 or CHO-K1. The settings on record: read-out: IC50 regarding glucose induced ATP increase (GLUT1 inhibition). In outline:
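DLD1 or CHO-K1 cells were starved overnight in glucose-free medium with 1% FCS, then combined with an oxidative phosphorylation inhibitor. GLUT1 activity was read as glucose-induced ATP increase, GLUT2 as fructose-induced. Intracellular ATP was quantified by CellTiter-Glo luminescence.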
Usually IC50 stands for the midpoint of a concentration-inhibition curve. `Cc1nn(Cc2ccc(CC(=O)N3CCOCC3)cc2)c(C)c1NC(=O)c1cc(C(F)(F)F)nc2ccc(Br)cc12` [Example 158, 6-bromo-N-(3,5-dimethyl-1-{4-[2-(morpholin-4-yl)-2-oxoethyl]benzyl}-1H-pyrazol-4-yl)-2-(trifluoromethyl)quinoline-4-carboxamide]: the IC50 stood at 521 nM.

For the molecule `Cc1nn(Cc2ccc(CC(=O)NCCO)cc2)c(C)c1NC(=O)c1cc(C(F)(F)F)nc2ccc(Br)cc12` [Example 159, 6-bromo-N-[1-(4-{2-[(2-hydroxyethyl)amino]-2-oxoethyl}benzyl)-3,5-dimethyl-1H-pyrazol-4-yl]-2-(trifluoromethyl)quinoline-4-carboxamide], the IC50 was determined as 875 nM. Turning to `Cc1nn(Cc2ccncc2)c(C)c1NC(=O)c1cc(C(F)(F)F)nc2ccc(Br)cc12` [Example 160, 6-bromo-N-[3,5-dimethyl-1-(pyridin-4-ylmethyl)-1H-pyrazol-4-yl]-2-(trifluoromethyl)quinoline-4-carboxamide], the IC50 came out at 14.3 nM. On to `Cc1c(NC(=O)c2cc(C(F)(F)F)nc3ccc(Br)cc23)c(C(F)(F)F)nn1Cc1ccc(C#N)cc1` [Example 161, 6-bromo-N-[1-(4-cyanobenzyl)-5-methyl-3-(trifluoromethyl)-1H-pyrazol-4-yl]-2-(trifluoromethyl)quinoline-4-carboxamide], for which the IC50 was 15.1 nM. As to `Cc1nn(Cc2ccc(F)c(F)c2)c(C)c1NC(=O)c1cc(C2CC2)nc2ccc(F)cc12` [Example 162, 2-cyclopropyl-N-[1-(3,4-difluorobenzyl)-3,5-dimethyl-1H-pyrazol-4-yl]-6-fluoroquinoline-4-carboxamide], the IC50 is 24.8 nM.

With `Cc1nn(Cc2ccc(F)cc2)c(C)c1NC(=O)c1cc(N(C)C)nc2ccccc12` [Example 163, 2-(dimethylamino)-N-[1-(4-fluorobenzyl)-3,5-dimethyl-1H-pyrazol-4-yl]quinoline-4-carboxamide], the IC50 was found to be 25 nM. Consider `Cc1nn(Cc2ccc(O)cc2)c(C)c1NC(=O)c1cc(C(F)(F)F)nc2ccc(Br)cc12` [Example 164, 6-bromo-N-[1-(4-hydroxybenzyl)-3,5-dimethyl-1H-pyrazol-4-yl]-2-(trifluoromethyl)quinoline-4-carboxamide], for which the IC50 came out at 27.1 nM. For the molecule `Cc1nn(Cc2ccc(F)c(F)c2)c(C)c1NC(=O)c1cc(C(F)(F)F)nc2ccc(Cl)cc12` [Example 165, 6-chloro-N-[1-(3,4-difluorobenzyl)-3,5-dimethyl-1H-pyrazol-4-yl]-2-(trifluoromethyl)quinoline-4-carboxamide], the IC50 is 30.4 nM. Then `Cc1nn(Cc2ccc(F)cc2)c(C)c1NC(=O)c1cc(C(F)(F)F)nc2ccc(-c3ccccc3)cc12` [Example 166, N-[1-(4-fluorobenzyl)-3,5-dimethyl-1H-pyrazol-4-yl]-6-phenyl-2-(trifluoromethyl)quinoline-4-carboxamide], with 41.1 nM; and `Cc1c(NC(=O)c2cc(C(F)(F)F)nc3c(Cl)cc(Cl)cc23)c(C(F)(F)F)nn1Cc1ccc(C#N)cc1` [Example 167, 6,8-dichloro-N-[1-(4-cyanobenzyl)-5-methyl-3-(trifluoromethyl)-1H-pyrazol-4-yl]-2-(trifluoromethyl)quinoline-4-carboxamide], with 46.2 nM; and `Cc1nn(Cc2ccc(F)c(F)c2)c(C)c1NC(=O)c1cc(C(F)(F)F)nc2cc(F)ccc12` [Example 168, N-[1-(3,4-difluorobenzyl)-3,5-dimethyl-1H-pyrazol-4-yl]-7-fluoro-2-(trifluoromethyl)quinoline-4-carboxamide], with 47.8 nM. For the molecule `Cc1nn(Cc2ccc(C#N)cc2)c(C)c1NC(=O)c1cc(C(F)(F)F)nc2cc(F)c(F)cc12` [Example 169, N-[1-(4-cyanobenzyl)-3,5-dimethyl-1H-pyrazol-4-yl]-6,7-difluoro-2-(trifluoromethyl)quinoline-4-carboxamide], the IC50 came out at 50.5 nM.
